Test results from US20250290928A1, “METHOD, KIT AND DEVICE FOR DETECTING EXTRACELLULAR VESICLES” (priority 2022, published 2025).
Primed or numbered codes have the meaning given here. *: point of attachment. Dabcyl′ = 4-((4-(dimethylamino)phenyl)azo)benzoic acid, CN(C)c1ccc(/N=N/c2ccc(C(=O)*)cc2)cc1; 5FAM = O=C1OC2(c3ccc(O)cc3Oc3cc(O)ccc32)c2ccc(C(=O)*)cc21

Tests used:
[1] = tested on: ADAM in the MDA-MB-231-derived extracellular vesicles; assay: Detection of ADAM activity of MDA-MB-231-derived extracellular vesicles with 96-well plate; format: biochemical, Human; conditions: Example 39, EV 3.3 μg/mL, reporter 5 μM, buffer (4)
Experimental: The MMP14 activity was evaluated with a 96-well plate (manufactured by Thermo Fisher Scientific Inc., model number: 137101). A fluorescence intensity was measured with a fluorescence plate reader (Synergy MX, manufactured by BioTek Instruments, Inc.) at […] every 5 min for 1 hour. For measurement wavelengths, an excitation wavelength of 485±20 nm and a fluorescence wavelength of 528±20 nm were used.
In addition, for detection of ADAM activity, 1 mM EPDAB010 or PEPDAB014 was diluted with the buffer (4) to prepare a 10 μM ADAM detection solution. In addition, for detection of Cathepsin D activity, 1 mM CathD was diluted with the buffer (4) to prepare a 10 μM Cathepsin D detection solution.
50 μL of the ADAM detection solution or the Cathepsin D detection solution was added to 50 μL of each of the samples, a reaction was performed at 30° C., and activity was evaluated.

[2] = tested on: ADAM in the MDA-MB-231-derived extracellular vesicles; assay: Digital detection of MDA-MB-231-derived extracellular vesicles through ADAM activity in wells; format: biochemical, Human; conditions: for Extracellular vesicle concentration: at a concentration of x1, 50 fL; for Expected value λ / Number of positives / Positive ratio: Example 40, EV 2 μg/mL, reporter 5 μM, 30° C.
Experimental: The concentration of the solution is 4 μg/mL.
50 μL of the ADAM or Cathepsin D detection solution was added to 50 μL of the sample to provide a reaction solution for wells.

Dabcyl-SPLAQAVRSSK (5FAM)-NH2 ({Dabcyl′}-SPLAQAVRSSK(5FAM)-NH2; SMILES CC(C)C[C@H](NC(=O)[C@@H]1CCCN1C(=O)[C@H](CO)NC(=O)c1ccc(/N=N/c2ccc(N(C)C)cc2)cc1)C(=O)N[C@@H](C)C(=O)N[C@@H](CCC(N)=O)C(=O)N[C@@H](C)C(=O)N[C@H](C(=O)N[C@@H](CCCNC(=N)N)C(=O)N[C@@H](CO)C(=O)N[C@@H](CO)C(=O)N[C@@H](CCCCNC(=O)c1ccc2c(c1)C(=O)OC21c2ccc(O)cc2Oc2cc(O)ccc21)C(N)=O)C(C)C) [PEPDAB010]
Fluorescence change after 2 hours of reaction at 30° C. [1]: 74,285 ΔRFU
Expected value λ (×1) ([2]; Example 40, 4 hr): 0.4984
Extracellular vesicle concentration ([2]; Example 40, 4 hr): 9.968e+09 mL⁻¹
Expected value λ (×1) ([2]; Example 40, 24 hr): 0.8509
Extracellular vesicle concentration ([2]; Example 40, 24 hr): 1.702e+10 mL⁻¹
Expected value λ ([2]; 4 hr): 0.09968
Number of positives ([2]; 4 hr): 2,664
Positive ratio ([2]; 4 hr): 0.09487
Expected value λ ([2]; 24 hr): 0.1702
Number of positives ([2]; 24 hr): 4,394
Positive ratio ([2]; 24 hr): 0.1565
